Entries after “also recorded” stand apart in the source; their conditions may differ.
Key:
[1] = system: Arabidopsis thaliana plants; assay: SOA1 phenotypic analysis of herbicide-treated plants (incl. MIC/Tmic); format: in vivo; details: for leafCurling, Dev. / leafTwisting, Dev. / leafWidth, Dev. / matureLeafAnthocyanins, Dev. / matureLeafChlorosis, Dev. / matureLeafNecrosis, Dev. / newLeafAnthocyanins, Dev. / newLeafChlorosis, Dev. / newLeafNecrosis, Dev. / pointedLeaves, Dev.: herbicide sprayed on 21-day plants, numeric value standardized to mock treated; for tMic, Dev.: score for time to full symptoms at minimum inhibitory concentration; for characteristic symptoms (morphological phenotype): herbicide-treated plants
Arabidopsis thaliana [2] = assay: MOA1 gene expression profiling (22,000 gene array); details: 1 hr; for Regulated Genes Following Herbicide Treatment: Down / Regulated Genes Following Herbicide Treatment: Up: p < 0.5; for No. of Lethal Genes Altered: regulated genes compared to list of essential (lethal) genes
Arabidopsis thaliana [3] = assay: MOA1 biochemical (metabolite) profiling by LC-MS and GC-MS; details: for stress related metabolites: within one hour after spraying
Magnaporthe grisea = format: cell-based
Arabidopsis plants = details: nitrate addition to N-starved plants; cited from earlier work

| SMILES | leafCurling, Dev. [1] | leafTwisting, Dev. [1] | leafWidth, Dev. [1] | matureLeafAnthocyanins, Dev. [1] | matureLeafChlorosis, Dev. [1] | matureLeafNecrosis, Dev. [1] | newLeafAnthocyanins, Dev. [1] | newLeafChlorosis, Dev. [1] | newLeafNecrosis, Dev. [1] | pointedLeaves, Dev. [1] | tMic, Dev. [1] | characteristic symptoms (morphological phenotype) [1] | also measured |
| --- | --- | --- | --- | --- | --- | --- | --- | --- | --- | --- | --- | --- | --- |
| O=C(O)COc1ccc(Cl)cc1Cl [2,4-D] | 1 | 2 | −1 | 1 | 2 | 0 | 0 | 1 | 0 | 0 | 2 |  | Symptom Class ([1]; phenotype class of three-week-old treated plants (FIG. 12)): 5 |
| O=C(O)c1cc(Oc2ccc(C(F)(F)F)cc2Cl)ccc1[N+](=O)[O-] [Acifluorfen] |  |  |  |  |  |  |  |  |  |  |  | Necrotic leaf flecks |  |
| Nc1nc[nH]n1 [Amitrole] |  |  |  |  |  |  |  |  |  |  |  | leaf bleaching and leaf enlargement |  |
| COC(=O)NS(=O)(=O)c1ccc(N)cc1 [Asulam] |  |  |  |  |  |  |  |  |  |  |  |  | Regulated Genes Following Herbicide Treatment: Down (Arabidopsis thaliana [2]): 7; Regulated Genes Following Herbicide Treatment: Up (Arabidopsis thaliana [2]): 80; No. of Lethal Genes Altered (Arabidopsis thaliana [2]): 5 |
| CCNc1nc(Cl)nc(NC(C)C)n1 [Atrazine] |  |  |  |  |  |  |  |  |  |  |  | rapid and widespread leaf necrosis |  |
| CC(C)N1C(=O)c2ccccc2NS1(=O)=O [Bentazon] |  |  |  |  |  |  |  |  |  |  |  | rapid and widespread leaf necrosis |  |
| COc1nc(C)nc(NC(=O)NS(=O)(=O)c2ccccc2Cl)n1 [Chlorsulfuron] |  |  |  |  |  |  |  |  |  |  |  | anthocyanin accumulation in the older leaves accompanied by chlorosis of the newly emerging leaves | Regulated Genes Following Herbicide Treatment: Up (Arabidopsis thaliana [2]): 97; No. of Lethal Genes Altered (Arabidopsis thaliana [2]): 8 |
| c1cc[n+]2c(c1)-c1cccc[n+]1CC2 [Diquat] | 2 | 0 | −2 | 0 | 1 | 4 | 0 | 1 | 4 | 1 | 2 | rapid and widespread leaf necrosis |  |
| CN(C)C(=O)Nc1ccc(Cl)c(Cl)c1 [Diuron] | 1 | 0 | −2 | 0 | 2 | 4 | 0 | 2 | 4 | 1 | 1 | rapid and widespread leaf necrosis |  |
| CP(=O)(O)CCC(N)C(=O)O (centres unmarked) [Glufosinate] | 2 | 1 | −2 | 0 | 3 | 0 | 0 | 3 | 0 | 1 | 1 | Chlorosis and leaf curling | Regulated Genes Following Herbicide Treatment: Down (Arabidopsis thaliana [2]): 54; Regulated Genes Following Herbicide Treatment: Up (Arabidopsis thaliana [2]): 296; No. of Lethal Genes Altered (Arabidopsis thaliana [2]): 10; stress related metabolites (Arabidopsis thaliana [3]): Only a few, if any; Nitrogen source utilization by M. grisea (Magnaporthe grisea; in the presence of glufosinate): only able to utilize glutamine and glutamate as nitrogen sources |
| O=C(O)CNCP(=O)(O)O [Glyphosate] | 0 | 0 | 0 | 3 | 1 | 3 | 1 | 2 | 0 | 1 | 2 | anthocyanin accumulation in the older leaves accompanied by chlorosis of the newly emerging leaves | tyrosine level relative to the control (Arabidopsis thaliana [3]; after one hour): decreased; Growth of M. grisea, Tiers 3 and 4 media (Magnaporthe grisea): nearly identical as compared to Unknown 4; also recorded: inhibited growth of M. grisea when nitrate, nitrite, or glutamate was provided as the sole nitrogen source; Growth inhibition of M. grisea (Magnaporthe grisea; glyphosate at 1.0 mg/ml): remediated by inclusion of aromatic amino acids to the media |
| CC(C)C1(C)N=C(c2ncccc2C(=O)O)NC1=O (centres unmarked) [Imazapyr] |  |  |  |  |  |  |  |  |  |  |  | anthocyanin accumulation in the older leaves accompanied by chlorosis of the newly emerging leaves | stress related metabolites (Arabidopsis thaliana [3]): Only a few, if any |
| CCc1cnc(C2=NC(C)(C(C)C)C(=O)N2)c(C(=O)O)c1 (centres unmarked) [Imazethapyr] |  |  |  |  |  |  |  |  |  |  |  | anthocyanin accumulation in the older leaves accompanied by chlorosis of the newly emerging leaves |  |
| CS(=O)(=O)c1cc(C(F)(F)F)ccc1C(=O)c1cnoc1C1CC1 [Isoxaflutole] |  |  |  |  |  |  |  |  |  |  |  |  | alterations in the expression of genes of the homogentisate biosynthetic pathway (Arabidopsis thaliana [2]): not observed; Regulated Genes Following Herbicide Treatment: Down (Arabidopsis thaliana [2]): 370; No. of Lethal Genes Altered (Arabidopsis thaliana [2]): 15; Alpha-tocopherol level relative to the control (Arabidopsis thaliana [3]; early time points): not significantly changed; tyrosine and phenylalanine level relative to the control (Arabidopsis thaliana [3]; metabolite data, early time points (1 hr)): up-regulated; also recorded: began to accumulate relative to the control after one hour; Growth of M. grisea in minimal plus tyrosine and minimal media (Magnaporthe grisea; concentrations insufficient to inhibit growth): inhibited in minimal plus tyrosine media, while growth in minimal media was unaffected |
| CSc1nnc(C(C)(C)C)c(=O)n1N [Metribuzin] |  |  |  |  |  |  |  |  |  |  |  | rapid and widespread leaf necrosis |  |
| O=C(O)c1ccccc1C(=O)Nc1cccc2ccccc12 [Naptalam] |  |  |  |  |  |  |  |  |  |  |  |  | Regulated Genes Following Herbicide Treatment: Down (Arabidopsis thaliana [2]): 47; Regulated Genes Following Herbicide Treatment: Up (Arabidopsis thaliana [2]): 50; No. of Lethal Genes Altered (Arabidopsis thaliana [2]): 3 |
| O=[N+]([O-])O [Nitrate, nitrate] |  |  |  |  |  |  |  |  |  |  |  |  | Nitrate Regulation of Glutamate synthetase gene (Arabidopsis plants): ↑; Nitrate Regulation of Glutamine synthetase (2) genes (Arabidopsis plants): ↑; Nitrate Regulation of MADs Box (2) genes (Arabidopsis plants): ↓; Nitrate Regulation of MYB transcription factor gene (Arabidopsis plants): ↑; Nitrate Regulation of Malate Dehydrogenase gene (Arabidopsis plants): ↑; Nitrate Regulation of Nitrate transporter gene (Arabidopsis plants): ↑; Nitrate Regulation of Phosphate transporter gene (Arabidopsis plants): ↑; Nitrate Regulation of Transaldolase gene (Arabidopsis plants): ↑; Nitrate Regulation of Transketolase gene (Arabidopsis plants): ↑ |
| CNc1cnn(-c2cccc(C(F)(F)F)c2)c(=O)c1Cl [Norfluazon, Norflurazon] |  |  |  |  |  |  |  |  |  |  |  |  | stress related metabolites (Arabidopsis thaliana [3]): Only a few, if any |
| C[n+]1ccc(-c2cc[n+](C)cc2)cc1 [Paraquat] | 2 | 0 | −1 | 0 | 1 | 4 | 0 | 1 | 4 | 1 | 2 | rapid and widespread leaf necrosis |  |
